Results reported in ChEMBL document CHEMBL1201862, “PubChem BioAssay data set” (2004).
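Compound exposure: 48 hours, 5 concentrations, 96-well plates. At the GI50, growth is halved.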 The source made the active and inactive calls. No stated cut-off is given here; in the data, active = GI50 up to about 1.1 µM and inactive = higher.

Columns and labels:
Assay in all cases: NCI-60 cell line screen, 48 h
OVCAR-4 = test system: OVCAR-4
SF-295 = test system: SF-295
K562 = test system: K562
NCI-H460 = test system: NCI-H460
COLO 205 = test system: COLO 205
OVCAR-8 = test system: OVCAR-8
HCT-15 = test system: HCT-15
SF-539 = test system: SF-539
HCT-116 = test system: HCT-116
M14 = test system: M14
UO-31 = test system: UO-31
RXF 393 = test system: RXF 393
OVCAR-5 = test system: OVCAR-5
A498 = test system: A498
KM12 = test system: KM12
HT-29 = test system: HT-29
SK-MEL-28 = test system: SK-MEL-28
Malme-3M = test system: Malme-3M
NCI-H23 = test system: NCI-H23
NCI-H226 = test system: NCI-H226
CCRF-CEM = test system: CCRF-CEM
IGROV-1 = test system: IGROV-1
SNB-75 = test system: SNB-75
SR = test system: SR
MOLT-4 = test system: MOLT-4
XF498 = test system: XF498
OVCAR-3 = test system: OVCAR-3
LOX IMVI = test system: LOX IMVI
SK-MEL-2 = test system: SK-MEL-2
UACC-62 = test system: UACC-62
RPMI-8226 = test system: RPMI-8226
SK-OV-3 = test system: SK-OV-3
SNB-78 = test system: SNB-78
ACHN = test system: ACHN
RXF 631 = test system: RXF 631
SN12C = test system: SN12C
U-251 = test system: U-251
SF-268 = test system: SF-268
HOP-18 = test system: HOP-18
DMS-114 = test system: DMS-114
HOP-62 = test system: HOP-62
A549 = test system: A549
M19-MEL = test system: M19-MEL
DMS-273 = test system: DMS-273
HL-60 = test system: HL-60
UACC-257 = test system: UACC-257
SK-MEL-5 = test system: SK-MEL-5
HCC 2998 = test system: HCC 2998
HOP-92 = test system: HOP-92
786-0 = test system: 786-0
EKVX = test system: EKVX
TK-10 = test system: TK-10
KM-20L2 = test system: KM-20L2
BT-549 = test system: BT-549
MDA-MB-435 = test system: MDA-MB-435
SW-620 = test system: SW-620
DU-145 = test system: DU-145
T47D = test system: T47D
NCI/ADR-RES = test system: NCI/ADR-RES
SNB-19 = test system: SNB-19
NCI-H522 = test system: NCI-H522
CAKI-1 = test system: CAKI-1
DLD-1 = test system: DLD-1
Hs-578T = test system: Hs-578T
LXFL 529 = test system: LXFL 529
MDA-N = test system: MDA-N
MDA-MB-231 = test system: MDA-MB-231
MCF7 = test system: MCF7
PC-3 = test system: PC-3

`O=S(=O)(N/N=C/c1ccc(/C=N/NS(=O)(=O)c2ccccc2)cc1)c1ccccc1` was tested, and the GI50 (OVCAR-4) was 63.7 µM (inactive), the GI50 (SF-295) was 15.5 µM (inactive) and the GI50 (K562) was 29.4 µM (inactive). The GI50 (NCI-H460) was 49.9 µM (inactive), the GI50 (COLO 205) was 21.4 µM (inactive) and the GI50 (OVCAR-8) was 42 µM (inactive). The GI50 (HCT-15) was 44.1 µM, the GI50 (SF-539) was 29 µM (inactive) and the GI50 (HCT-116) was 57.3 µM (inactive). The GI50 (M14) was > 100 µM (inactive), the GI50 (UO-31) was 63.2 µM (inactive) and the GI50 (RXF 393) was 27.7 µM (inactive). For the same compound, the GI50 (OVCAR-5) was 4.36 µM (inactive), the GI50 (A498) was 68.5 µM (inactive) and the GI50 (KM12) was 35.8 µM (inactive). The GI50 (HT-29) was 59.6 µM (inactive), the GI50 (SK-MEL-28) was 81.7 µM (inactive) and the GI50 (Malme-3M) was > 100 µM (inactive). The GI50 (NCI-H23) was 35.2 µM (inactive), the GI50 (NCI-H226) was > 100 µM (inactive) and the GI50 (CCRF-CEM) was 30.3 µM (inactive). The GI50 (IGROV-1) was 37.9 µM (inactive), the GI50 (SNB-75) was 70.3 µM (inactive) and the GI50 (SR) was 29 µM (inactive). The GI50 (MOLT-4) was 21.5 µM (inactive), the GI50 (XF498) was 68.9 µM (inactive) and the GI50 (OVCAR-3) was 30.7 µM (inactive). For the same compound, the GI50 (LOX IMVI) was 16 µM (inactive), the GI50 (SK-MEL-2) was 43.5 µM (inactive) and the GI50 (UACC-62) was 24.9 µM (inactive). The GI50 (RPMI-8226) was 45 µM (inactive), the GI50 (SK-OV-3) was > 100 µM (inactive) and the GI50 (SNB-78) was 61.8 µM (inactive). The GI50 (ACHN) was 55.8 µM (inactive), the GI50 (RXF 631) was 36.4 µM (inactive) and the GI50 (SN12C) was 42.6 µM (inactive). For the same compound, the GI50 (U-251) was 41 µM (inactive), the GI50 (SF-268) was > 100 µM (inactive) and the GI50 (HOP-18) was 84.3 µM (inactive). The GI50 (DMS-114) was 54.8 µM (inactive), the GI50 (HOP-62) was 44.9 µM (inactive) and the GI50 (A549) was 77.6 µM (inactive). For the same compound, the GI50 (M19-MEL) was 50.6 µM (inactive), the GI50 (DMS-273) was 46.8 µM (inactive) and the GI50 (HL-60) was 23.2 µM (inactive). For the same compound, the GI50 (UACC-257) was 53.2 µM (inactive), the GI50 (SK-MEL-5) was 39.4 µM (inactive) and the GI50 (HCC 2998) was > 100 µM (inactive). For the same compound, the GI50 (HOP-92) was 31.8 µM (inactive), the GI50 (786-0) was 50.6 µM (inactive) and the GI50 (EKVX) was 72.9 µM (inactive). For the same compound, the GI50 (TK-10) was 60.7 µM (inactive) and the GI50 (KM-20L2) was > 100 µM (inactive).
For `C=C(CN(C)C)C(=O)c1ccccc1[N+](=O)[O-]`, the GI50 (OVCAR-4) was 16.9 µM (inactive), the GI50 (BT-549) was 16.3 µM (inactive) and the GI50 (SF-295) was 32.8 µM (inactive). For the same compound, the GI50 (K562) was 3.39 µM (inactive), the GI50 (NCI-H460) was 34 µM (inactive) and the GI50 (COLO 205) was 7.8 µM (inactive). For the same compound, the GI50 (OVCAR-8) was 20.2 µM (inactive), the GI50 (MDA-MB-435) was 16.1 µM (inactive) and the GI50 (HCT-15) was 10.8 µM. The GI50 (SF-539) was 39.7 µM (inactive), the GI50 (HCT-116) was 17.3 µM (inactive) and the GI50 (M14) was 15.5 µM (inactive). For the same compound, the GI50 (UO-31) was 17.7 µM (inactive), the GI50 (RXF 393) was 16.1 µM (inactive) and the GI50 (OVCAR-5) was 15.8 µM (inactive). For the same compound, the GI50 (A498) was > 57.8 µM (inactive), the GI50 (KM12) was 31.1 µM (inactive) and the GI50 (HT-29) was 19.2 µM (inactive). For the same compound, the GI50 (SK-MEL-28) was 17.6 µM (inactive), the GI50 (Malme-3M) was 7.76 µM (inactive) and the GI50 (NCI-H23) was 16.9 µM (inactive). For the same compound, the GI50 (NCI-H226) was 30.1 µM (inactive), the GI50 (IGROV-1) was 22.2 µM (inactive) and the GI50 (SNB-75) was 34.8 µM (inactive). For the same compound, the GI50 (SR) was 3.38 µM (inactive), the GI50 (XF498) was 17.1 µM (inactive) and the GI50 (SW-620) was 11.3 µM (inactive). For the same compound, the GI50 (OVCAR-3) was 18.9 µM (inactive), the GI50 (LOX IMVI) was 7.94 µM (inactive) and the GI50 (SK-MEL-2) was 18 µM (inactive). The GI50 (DU-145) was 23.6 µM (inactive), the GI50 (UACC-62) was 17.9 µM (inactive) and the GI50 (SK-OV-3) was 37.2 µM (inactive). For the same compound, the GI50 (SNB-78) was 26.7 µM (inactive), the GI50 (T47D) was 3.83 µM (inactive) and the GI50 (ACHN) was 16.1 µM (inactive). For the same compound, the GI50 (RXF 631) was 19 µM (inactive), the GI50 (NCI/ADR-RES) was 19.2 µM (inactive) and the GI50 (SNB-19) was > 56.4 µM (inactive). For the same compound, the GI50 (NCI-H522) was 3.56 µM (inactive), the GI50 (SN12C) was 17.7 µM (inactive) and the GI50 (U-251) was 32.2 µM (inactive). For the same compound, the GI50 (SF-268) was 27.2 µM (inactive), the GI50 (HOP-18) was 18.7 µM (inactive) and the GI50 (DMS-114) was 18.3 µM (inactive). The GI50 (CAKI-1) was 14.2 µM (inactive), the GI50 (HOP-62) was 38.7 µM (inactive) and the GI50 (A549) was > 57.8 µM (inactive). For the same compound, the GI50 (M19-MEL) was 17.8 µM (inactive), the GI50 (DMS-273) was 18.2 µM (inactive) and the GI50 (DLD-1) was 13.4 µM (inactive). For the same compound, the GI50 (HL-60) was 2.79 µM (inactive), the GI50 (UACC-257) was 15.8 µM (inactive) and the GI50 (Hs-578T) was 22.9 µM (inactive). For the same compound, the GI50 (SK-MEL-5) was 18.8 µM (inactive), the GI50 (LXFL 529) was 14.8 µM (inactive) and the GI50 (HCC 2998) was 29.9 µM (inactive). For the same compound, the GI50 (HOP-92) was 9.14 µM (inactive), the GI50 (786-0) was 12.2 µM (inactive) and the GI50 (MDA-N) was 14.5 µM (inactive). For the same compound, the GI50 (MDA-MB-231) was 18.2 µM (inactive), the GI50 (MCF7) was 14.3 µM (inactive) and the GI50 (PC-3) was 17.4 µM (inactive). The GI50 (EKVX) was > 43.5 µM (inactive), the GI50 (TK-10) was 19.5 µM (inactive) and the GI50 (KM-20L2) was 23.4 µM (inactive).
